Measurements from US20180170941A1 (priority 2016, published 2018).

molecular target: T1, α5β3γ2 GABAA receptors (Ltk cell membranes) (Homo sapiens, UniProt P18507+P31644); assay: Binding activity of test compounds on GABAAR: inhibition of [3H]Ro15-1788 binding; conditions: not given
T1 construct: membranes
Protocol: Tissue culture and Membrane Preparation: The binding was performed on Ltk cells stably expressing GABAA receptors: α1β1γ2, α2β3γ2, α3β3γ2 and α5β3γ2 (provided by Merck Co., NJ, USA). Cells were seeded in 100 mm culture plates in DMEM/F12 medium containing 10% serum and antibiotics in 5% CO2 and allowed to grow for 1-2 days. GABAAR expression was then induced by dexamethasone as follows: 0.5 μM for 1 day for α5 containing and 2μM for 3 days for α1, α2 and α3 containing GABAARs. After induction, cells were collected by scraping into Dulbecco's Phosphate buffered saline (DPBS, pH 7.4, Invitrogen, Carlsbad, Calif., USA) and centrifuged at 150×g for 10 min. The pellet was washed twice by re-suspension and centrifugation. The cell pellets from at least 5 different preps were combined, suspended in the binding assay buffer (50 mM KH2P4; 1 mM EDTA; 0.2 M KCl, pH 7.4) and membranes prepared by sonication (3-5 times, 30 sec) using Branson Sonifier 150 (G.Heinmann, Germany). Protein content was determined using BCA assay (Bio-Rad Labs, Reinach, Switzerland) with Bovine Serum Albumin (Sigma Aldrich, St. Louis, Mo., USA) as the standard. Aliquots were prepared and stored at −20° C. for further use in binding assays.
Ligand Binding: Saturation binding curves were obtained by incubating membranes with increasing concentrations (0.01-8 nM) of [^3H]Ro15-1788 (Flumazepil, 75-85 Ci/mmol, PerkinElmer, MA, USA), with nonspecific binding measured in the presence of 10 μM diazepam.
All binding assays were performed for 1 h at 4° C. in assay buffer. The total assay volume was 0.5 ml containing 0.2 mg/ml protein for α5 and 0.4 mg/ml for α1, α2, and α3 containing GABAAR membranes. Incubations were terminated by filtration through GF/B filters using a 24-Cell Harvestor (Brandel, Gaithersburg, Md., USA) followed by 3 washes with ice-cold assay buffer. Filters were transferred to scintillation vials, 5 ml scintillation liquid added, vortex-mixed and kept in dark. Next day, radioactivity was obtained using a scintillation counter (Beckman Coulter, Brea, Calif., USA). All assays were performed in triplicate.
Data Analyses: Saturation and inhibition curves were obtained using GraphPad Prism software (GraphPad Software, Inc., CA, USA).

T1 sequence (P31644 32-462): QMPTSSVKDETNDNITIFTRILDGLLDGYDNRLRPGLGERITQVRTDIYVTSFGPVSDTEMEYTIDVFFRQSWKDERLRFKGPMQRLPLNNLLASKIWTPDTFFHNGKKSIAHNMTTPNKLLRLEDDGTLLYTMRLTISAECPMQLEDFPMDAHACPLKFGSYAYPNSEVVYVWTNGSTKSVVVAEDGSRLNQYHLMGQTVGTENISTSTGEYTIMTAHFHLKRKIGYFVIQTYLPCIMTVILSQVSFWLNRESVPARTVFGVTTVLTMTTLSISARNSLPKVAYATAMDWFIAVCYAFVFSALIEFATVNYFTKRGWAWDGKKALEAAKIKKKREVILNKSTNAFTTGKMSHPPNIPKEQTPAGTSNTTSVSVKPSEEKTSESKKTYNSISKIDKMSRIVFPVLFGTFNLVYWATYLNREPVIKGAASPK
T1 sequence (P28472 26-473 partner): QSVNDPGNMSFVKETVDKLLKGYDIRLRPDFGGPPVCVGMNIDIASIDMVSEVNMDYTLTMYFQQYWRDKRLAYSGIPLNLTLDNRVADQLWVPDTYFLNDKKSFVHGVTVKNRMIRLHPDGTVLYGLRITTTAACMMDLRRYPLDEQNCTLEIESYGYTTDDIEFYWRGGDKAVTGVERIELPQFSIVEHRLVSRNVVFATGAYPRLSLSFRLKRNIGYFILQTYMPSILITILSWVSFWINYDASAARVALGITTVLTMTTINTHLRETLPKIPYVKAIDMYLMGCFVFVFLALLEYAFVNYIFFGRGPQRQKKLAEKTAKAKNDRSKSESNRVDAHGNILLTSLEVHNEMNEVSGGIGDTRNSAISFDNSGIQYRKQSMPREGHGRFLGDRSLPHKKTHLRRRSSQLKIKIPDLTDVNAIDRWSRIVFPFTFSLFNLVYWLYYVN
T1 sequence (P18507 40-475): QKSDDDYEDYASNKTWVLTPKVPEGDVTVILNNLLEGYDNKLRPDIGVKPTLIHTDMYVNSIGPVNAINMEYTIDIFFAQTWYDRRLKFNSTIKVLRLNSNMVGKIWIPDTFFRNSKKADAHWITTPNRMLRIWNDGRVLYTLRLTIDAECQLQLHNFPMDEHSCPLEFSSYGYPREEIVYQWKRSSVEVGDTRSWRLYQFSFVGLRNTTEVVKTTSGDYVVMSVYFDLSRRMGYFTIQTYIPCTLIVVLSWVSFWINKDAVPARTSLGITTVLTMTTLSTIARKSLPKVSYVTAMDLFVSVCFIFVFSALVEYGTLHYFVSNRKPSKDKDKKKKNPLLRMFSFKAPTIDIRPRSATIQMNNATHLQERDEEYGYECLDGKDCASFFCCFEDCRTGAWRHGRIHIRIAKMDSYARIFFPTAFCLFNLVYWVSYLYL

Row | Compound | Ki
1 | COCc1nnc2n1Cc1c(-c3nc(C)no3)ncn1-c1cc(Cl)ccc1-2 [Compound 457] | > 1000 nM
2 | Cc1ccc(S(=O)(=O)c2ncn3c2Cc2c(C)nnn2-c2cc(F)ccc2-3)cc1 [Compound 143] | > 1000 nM
3 | CC(C)OCc1nnc2n1Cc1c(-c3cnco3)ncn1-c1ccc(Cl)cc1-2 [Compound 315] | > 1000 nM
4 | COCc1nnc2n1Cc1cncn1-c1ccc(OC)cc1-2 [Compound 131] | > 1000 nM

same assay, conditions: GABA α5 Binding Ki Values, inhibition of [3H]Ro15-1788 binding; reported as ranges

Row | Compound | Ki
5 | COc1ccc2c(c1)-c1nnc(COCc3cccnc3)n1Cc1c(-c3noc(C(C)C)n3)ncn1-2 [Compound 203] | < 100 nM
6 | COc1ccc2c(c1)-c1nnc(COCc3cccc(F)c3)n1Cc1c(-c3noc(C(C)C)n3)ncn1-2 [Compound 183] | < 100 nM
7 | COCc1nnc2n1Cc1c(C3=NC[C@@H](C)O3)ncn1-c1ccc(Cl)cc1-2 [Compound 294] | < 100 nM
8 | CCOC(=O)c1ncn2c1Cc1c(COc3cccc(OC)c3)nnn1-c1cc(OC)ccc1-2 [Compound 11] | < 100 nM
9 | COc1ccc2c(c1)-c1nnc(COc3cccnc3)n1Cc1c(-c3noc(C(C)C)n3)ncn1-2 [Compound 176] | < 100 nM
10 | Cc1ccccc1C#Cc1ncn2c1Cn1c(COC(C)C)nnc1-c1cc(Cl)ccc1-2 [Compound 310] | < 100 nM
11 | C#Cc1ccc2c(c1)-c1nnc(COC)n1Cc1c(C3=N[C@@H](C(C)C)CO3)ncn1-2 [Compound 384] | 100 to 1000 nM
12 | COCc1nnc2n1Cc1c(COc3ccccn3)ncn1-c1ccc(Cl)cc1-2 [Compound 274] | 100 to 1000 nM
13 | COc1ccc2c(c1)-n1nncc1Cc1c(C3=N[C@@H](C(C)C)CO3)ncn1-2 [Compound 382] | 100 to 1000 nM
14 | CC#Cc1ncn2c1Cn1c(COC)nnc1-c1cc(Cl)ccc1-2 [Compound 339] | < 100 nM
15 | CC(C)OCc1nnc2n1Cc1c(C3=N[C@@H](C)CO3)ncn1-c1ccc(Cl)cc1-2 [Compound 287] | 100 to 1000 nM
16 | COCc1nnc2n1Cc1c(C3=N[C@@H](c4ccccc4)CO3)ncn1-c1ccc(OC)cc1-2 [Compound 343] | < 100 nM
17 | COCc1nnc2n1Cc1c(-c3ncco3)ncn1-c1ccc(Cl)cc1-2 [Compound 249] | < 100 nM
18 | CCOC(=O)c1ncn2c1Cn1c(Br)nnc1-c1cc(OC)ccc1-2 [Compound 106] | < 100 nM
19 | FC(F)(F)COCc1nnc2n1Cc1c(C3=N[C@@H](c4ccccc4)CO3)ncn1-c1ccc(Cl)cc1-2 [Compound 304] | < 100 nM
20 | COc1ccc2c(c1)-c1nnc(COC(C)(C)C)n1Cc1c(-c3noc(C(C)C)n3)ncn1-2 [Compound 201] | 100 to 1000 nM
21 | COc1ccc2c(c1)-n1nncc1Cc1c(C#CCc3ccccc3OC(F)(F)F)ncn1-2 [Compound 420] | < 100 nM
22 | Clc1ccc2c(c1)-n1nncc1Cc1c(C#Cc3ccccn3)ncn1-2 [Compound 401] | < 100 nM
23 | CCOCc1nnc2n1Cc1c(C3=NCCO3)ncn1-c1ccc(Cl)cc1-2 [Compound 317] | < 100 nM
24 | COc1ccc2c(c1)-n1nnc(COc3cccc(F)c3)c1Cc1c(-c3noc(C)n3)ncn1-2 [Compound 168] | < 100 nM
25 | COc1ccc2c(c1)-n1nncc1Cc1c(-c3nc(-c4ccc(C(F)(F)F)cc4)co3)ncn1-2 [Compound 390] | > 1000 nM
26 | COc1ccc2c(c1)-n1nnc(CN3CCC(c4ccccc4)CC3)c1Cc1c(C#N)ncn1-2 [Compound 253] | > 1000 nM

Row | Compound | Ki
27 | COCc1nnc2n1Cc1c(C#CCc3cccc(OC(F)(F)F)c3)ncn1-c1ccc(Cl)cc1-2 [Compound 423] | < 100 nM
28 | CCOC(=O)c1ncn2c1Cc1c(COc3ccccc3)nnn1-c1cc(OC)ccc1-2 [Compound 9] | < 100 nM
29 | COCc1nnc2n1Cc1c(-c3ncco3)ncn1-c1ccc(C(F)(F)F)cc1-2 [Compound 471] | < 100 nM
30 | CCc1nc(-c2ncn3c2Cc2c(Cc4ccccc4)nnn2-c2cc(OC)ccc2-3)no1 [Compound 194] | < 100 nM
31 | COc1ccc2c(c1)-n1nnc(COc3ccc(F)cc3)c1Cc1c(-c3noc(C)n3)ncn1-2 [Compound 180] | < 100 nM
32 | COc1ccc2c(c1)-n1nncc1Cc1c(C3=N[C@@H](c4ccc(Cl)cc4Cl)CO3)ncn1-2 [Compound 374] | 100 to 1000 nM
33 | CC(C)OCc1nnc2n1Cc1c(C3=N[C@@H](c4ccc(F)cc4)CO3)ncn1-c1ccc(Cl)cc1-2 [Compound 326] | < 100 nM
34 | COc1ccc(C#Cc2ncn3c2Cc2cnnn2-c2cc(OC)ccc2-3)cc1 [Compound 414] | < 100 nM
35 | Cc1ccc(S(=O)(=O)c2ncn3c2Cc2c(C)nnn2-c2cc(F)ccc2-3)cc1 [Compound 143] | 100 to 1000 nM
36 | CC(C)OCc1nnc2n1Cc1c(C3=NCCO3)ncn1-c1ccc(Cl)cc1-2 [Compound 316] | 100 to 1000 nM
37 | CCOC(=O)c1ncn2c1Cc1c(-c3ccccc3Cl)nnn1-c1cc(OC)ccc1-2 [Compound 279] | > 1000 nM
38 | COCc1nnc2n1Cc1c(C3=NC(c4ccccc4)CO3)ncn1-c1ccc(Cl)cc1-2 (stereo not shown) [Compound 242] | < 100 nM
39 | CCOC(=O)c1ncn2c1Cn1c(Oc3ccccc3)nnc1-c1cc(OC)ccc1-2 [Compound 104] | < 100 nM
40 | COc1ccc2c(c1)-c1nnc(COc3ccccc3)n1Cc1c(Br)ncn1-2 [Compound 232] | < 100 nM
41 | Clc1ccc2c(c1)-n1nncc1Cc1c(-c3nc(-c4ccccc4)co3)ncn1-2 [Compound 385] | < 100 nM
42 | Cc1nnn2c1Cc1c(C(=O)OCC(F)(F)F)ncn1-c1ccc(F)cc1-2 [Compound 114] | < 100 nM
43 | COCc1nnc2n1Cc1c(C3=N[C@@H](c4ccccc4C)CO3)ncn1-c1ccc(Cl)cc1-2 [Compound 330] | < 100 nM
44 | CC#Cc1ncn2c1Cc1cnnn1-c1cc(Cl)ccc1-2 [Compound 416] | < 100 nM
45 | COCc1nnc2n1Cc1c(C3=NCCO3)ncn1-c1ccc(OC(F)(F)F)cc1-2 [Compound 460] | 100 to 1000 nM
46 | COCc1nnc2n1Cc1c(C3=N[C@@H](Cc4ccccc4)CO3)ncn1-c1ccc(Cl)cc1-2 [Compound 265] | 100 to 1000 nM
47 | COc1ccc2c(c1)-n1nnc(COc3ccccc3)c1Cc1c(C#N)ncn1-2 [Compound 224] | < 100 nM
48 | COCc1nnc2n1Cc1c(C#CCc3ccccc3)ncn1-c1ccc(Cl)cc1-2 [Compound 346] | < 100 nM

Row | Compound | Ki
49 | Cc1nc(-c2ncn3c2Cc2c(C)nnn2-c2ccccc2-3)no1 [Compound 127] | < 100 nM
50 | Cc1ncn2c1Cc1c(C)nnn1-c1ccccc1-2 [Compound 121] | > 1000 nM
51 | CCOCc1nnc2n1Cc1c(C3=NC(c4ccccc4)CO3)ncn1-c1ccc(Cl)cc1-2 (stereo not shown) [Compound 260] | < 100 nM
52 | Cc1nnn2c1Cc1c(-c3noc(C(C)C)n3)ncn1-c1ccc(F)cc1-2 [Compound 149] | < 100 nM
53 | CCOCc1ncn2c1Cc1c(COCC)nnn1-c1ccccc1-2 [Compound 134] | 100 to 1000 nM
54 | CCOCc1nnc2n1Cc1c(C3=N[C@@H](c4ccc(F)cc4)CO3)ncn1-c1ccc(Cl)cc1-2 [Compound 325] | < 100 nM
55 | CCOCc1nnc2n1Cc1c(-c3nc(C(C)C)no3)ncn1-c1ccc(Cl)cc1-2 [Compound 254] | < 100 nM
56 | CC(C)c1nc(-c2ncn3c2Cn2c(COc4cccc(F)c4)nnc2-c2cc(F)ccc2-3)no1 [Compound 188] | < 100 nM
57 | Cc1nnn2c1Cc1c(-c3nc(C(C)C)no3)ncn1-c1ccccc1-2 [Compound 132] | < 100 nM
58 | COc1ccc2c(c1)-n1nncc1Cc1c(C#CCc3cccc(F)c3)ncn1-2 [Compound 419] | < 100 nM
59 | C#Cc1ncn2c1Cc1c(C)nnn1-c1ccccc1-2 [Compound 161] | < 100 nM
60 | CC(C)C#Cc1ncn2c1Cc1cnnn1-c1cc(Cl)ccc1-2 [Compound 415] | < 100 nM
61 | COc1ccc2c(c1)-c1nnc(COC3CCCC3)n1Cc1c(-c3noc(C(C)C)n3)ncn1-2 [Compound 178] | < 100 nM
62 | CCOC(=O)c1ncn2c1Cn1c(COCC(F)(F)F)nnc1-c1cc(Cl)ccc1-2 [Compound 308] | < 100 nM
63 | COc1ccc2c(c1)-c1nnc(COCc3ccccc3)n1Cc1c(-c3noc(C)n3)ncn1-2 [Compound 165] | < 100 nM
64 | COc1ccc2c(c1)-c1nnc(COc3ccccc3F)n1Cc1c(-c3noc(C(C)C)n3)ncn1-2 [Compound 174] | < 100 nM
65 | COc1ccc2c(c1)-n1nncc1Cc1c(C#CCc3cccc(Cl)c3)ncn1-2 [Compound 417] | < 100 nM
66 | COc1ccc2c(c1)-n1nncc1Cc1c(-c3nc(C)no3)ncn1-2 [Compound 258] | < 100 nM
67 | CCOC(=O)c1ncn2c1Cc1c(Cc3ccc(Cl)cc3)nnn1-c1cc(F)ccc1-2 [Compound 45] | < 100 nM
68 | COCc1nnc2n1Cc1c(C3=NCCCO3)ncn1-c1ccc(Cl)cc1-2 [Compound 237] | 100 to 1000 nM
69 | Fc1ccccc1C#Cc1ncn2c1Cc1cnnn1-c1cc(Cl)ccc1-2 [Compound 399] | < 100 nM

same assay, conditions: inhibition of [3H]Ro15-1788 binding; reported as ranges

Row | Compound | Ki
70 | COCc1nnc2n1Cc1c(COc3cccc(F)c3)ncn1-c1ccc(Cl)cc1-2 [Compound 434] | > 1000 nM
